Our source for the Sterilization effect values is US6919043B2, “Method of sterilization for container, apparatus using therefor and heat treatment for container” (Dai Nippon Printing Co., Ltd., priority 2002, dated 2005).

Like-named read-outs stand apart in the source and are kept apart here.

The subject of the assay is Bacillus subtilis spore. Particulars: rinsing 3 sec, log(adhesion bacilli/survival bacilli).

Protocol: Sterilization process was performed, changing the conditions of a detail according to the following procedure for PET bottle (bottle made from a polyethylene terephthalate) with a capacity of 500 ml.
The hot blast 3 was supplied to the interior of the bottle per minute 0.1 m from the nozzle with a bore of 10 mm, and the preheating of the bottle was carried out. The temperature of hot blast was set as 105° C.-125° C. near the nose of the nozzle, and the amount of insertions into the bottle of the nozzle was set as 30 mm. Simultaneously, the hot blast of 85° C. was turned and sprayed on the lip portion of a bottle by the flow rate of 3 per minute 0.1 m from the nozzle with a bore of 50 mm. In addition, the number of nozzles for the lip portion heating was two to one bottle. The blasting time of the hot blast from each nozzle was set up in 3 seconds. The temperature in the bottle after the hot blast supplying had reached 50° C.
The bottle was left for 0.5-3.5 seconds after the mist supplying. Then, the nozzle was inserted into the bottle and hot blast was blown for 1 second. The bore of the nozzle, the amount of insertions of the nozzle, and the temperature and the flow rate of the hot blast were the same as the preheating.
The bottle was left for 1-3.5 second after hot blast blowing in. Then, the bottle was inverted and was inserted the a nozzle a nozzle with a bore of 6 mm in the interior, and the bottle was rinsed for aseptic water which is heated by 70° C. for 3 seconds. The flow rate of aseptic water was 8.5 L/min.
Moreover, a part of process was omitted when sterilization process was performed.
About each of each sterilization conditions, five bottles with the Bacillus subtilis spore of 103, 104, and 105 was sterilized, the trypto-soy bouillon medium was distributed aseptically in the bottle, and the existence of culture and sterilization was evaluated. The bacterial number of survivals was computed by the most probable number (MPN: most probable number) in probability theory from the test result in each sterilization conditions, and the following formula estimated the sterilization effect in quest of the opposite numeric value of the number of adhesion bacilli, and the number of survival bacilli.
Sterilization effect=log (the number of adhesion bacilli/the number of survival bacilli).

For `OO` [hydrogen peroxide], the Sterilization effect is, setting by setting: (Condition 1: preheating 50 °C, mist 35 μl, leaving 3.5 sec, hot blast Yes, standing 1.0 sec) 6.5; (Condition 2: preheating 50 °C, mist 25 μl, leaving 3.5 sec, hot blast Yes, standing 1.0 sec) 5.5; (Condition 3: preheating 50 °C (neck portion not heated from the outside), mist 20 μl, leaving 3.5 sec, hot blast Yes, standing 1.0 sec) 5.0; (Condition 4: preheating 50 °C, mist 15 μl, leaving 3.5 sec, hot blast Yes, standing 1.0 sec) 4.5; (Condition 5: preheating 50 °C (neck portion heated from the exterior), mist 20 μl, leaving 3.5 sec, hot blast Yes, standing 1.0 sec) 5.5; (Condition 6: preheating No, mist 40 μl, leaving 3.5 sec, hot blast Yes, standing 1.0 sec) 3.0. The Sterilization effect runs as follows: (Condition 7: preheating No, mist 20 μl, leaving 3.5 sec, hot blast Yes, standing 1.0 sec) less than 2; (Condition 8: preheating 50 °C, mist 30 μl, leaving 0.5 sec, hot blast Yes, standing 3.5 sec) 3.0; (Condition 9: preheating 50 °C, mist 20 μl, leaving 0.5 sec, hot blast Yes, standing 3.5 sec) less than 2; (Condition 10: preheating 50 °C, mist 20 μl, leaving 3.5 sec, hot blast No, standing 1.0 sec) 4.0; (Condition 11: preheating 50 °C, mist 15 μl, leaving 3.5 sec, hot blast No, standing 1.0 sec) 3.0.
